Test results taken from US9709555B2, “Compound for generating second harmonic of light, dye composition for generating second harmonic of light, and cell examination method” (KEIO UNIVERSITY, priority 2013, dated 2017).
Converted amounts (≈) assume the structure as drawn. “Also recorded” adds a separate entry of the source.

Experiments:
CHO cells [1] = assay: Evaluation of SHG and TPF signals of dyes applied to CHO cells; type: cell-based, Chinese Hamster; details: about 100 μM dye, pulse laser at 1,000 nm, qualitative comparison
Procedure: (§1) DMSO solutions of the dyes #1 to #3, #4, #5 and Ap3 were diluted 1000 times using an extracellular fluid (Artificial Cerebrospinal Fluid), and when all were assumed to be dissolved, the final concentration was set at about 100 μM.
A CHO (Chinese Hamster Ovary) cell cultured on a cover glass was used as an observation subject, immersed into the above described dye solution to try dyeing a cell membrane, and directly observed under a microscope within several minutes.
A multiphoton laser microscope system (FV1000MPE manufactured by Olympus Corporation) on which an ultrashort femtosecond laser (MaitaiHP manufactured by Newport) was mounted was used for the observation, and SHG and two-photon fluorescence (Two-Photon Fluorescence: TPF) after irradiation by a pulse laser at 1,000 nm were observed under the same detection condition for each dye. Three images were obtained by changing fields of view per each dye, and signal intensities were qualitatively compared among the dyes. FIGS. 4 to 6 show images of Comparative Examples 4 to 6, and FIGS. 7 and 8 show images of Examples 2 and 3, respectively.

[2] = Evaluation of solubility of dyes; type: physicochemical; details: for Dissolving in DMSO: DMSO added to a dye concentration of about 100 mM; for solubility: extracellular fluid (Artificial Cerebrospinal Fluid), aqueous buffer, kinetic from dmso stock; for solubility / Solubility (μM): solubility into a buffer, DMSO solution diluted 1000 times with extracellular fluid; for Solubility into a buffer: result in words
Procedure: Furthermore, using anionic, neutral, zwitter, and dicationic dyes shown in Table 1, solubility into a buffer, toxicity, and presence or absence of SHG and TPF signals when applied to cultured cells (CHO cells) were evaluated, respectively. Herein, the dyes #1 to 5 are dyes for generating a second harmonic of light outside of the range of the present invention, and the dyes #6 and 7 are dyes for generating a second harmonic of light within the range of the present invention.
DMSO (dimethyl sulfoxide) was added to the synthesized dye group (dyes #1 to #7) in Table 2 to have a concentration of a dye at about 100 mM and dissolving was attempted.
as §1

CHO cells [3] = assay: Evaluation of cytotoxicity of dyes (cell forms before and after dyeing); type: cell-based, Chinese Hamster; details: cell form before and after dyeing, differential interference figure
Procedure: For evaluation of cytotoxicity due to a dye, cell forms before and after dyeing were confirmed from a differential interference figure using near-infrared light. Cytotoxicity was evaluated by particularly focusing on two points that 1) a cell having an extended structure due to interaction with an extracellular matrix loses its adhesion to thus separate from a cover glass and is rounded, and 2) a cell membrane having a smooth form becomes an inhomogeneous and uneven form, when the physiological condition of the cell deteriorates.

[4] = system: cultured human normal astrocyte; assay: SHG and TPF imaging of dye introduced into cultured human normal astrocyte; type: cell-based; details: 100 μM dye in buffer, introduced by pipette, 1,000 nm exciting light; for SHG signal: SHG at 500 nm
Procedure: A buffer containing 100 μM of FM4-64 was prepared and introduced into a cultured human normal astrocyte using a pipette. The dye that was introduced into the cell spreads throughout the entire cell over time.
For the measurement, a multiphoton microscope capable of SHG imaging and TPF imaging obtained by incorporating a tunable femtosecond mode synchronous infrared laser into a commercially available confocal laser scanning microscope was used as the light source. By irradiating with 1,000 nm of exciting light, an SHG signal light having a wavelength of 500 nm is generated from the dye in the same direction as the direction in which an infrared pulse laser travels. The signal can be detected in a photomultiplier tube provided on the laser light traveling direction side. A back scattered component of the TPF signal light is also observed by irradiating with the same exciting light.
SHG and TPF imaging was carried out in the same manner as Comparative Example 1 except for using Ap1 to Ap3 as dyes, and these cases were Comparative Examples 2 and 3 and Example 1, respectively.

nerve cell = details: dye introduced from the cell exterior, femtosecond laser; cited from earlier work

| SMILES | Dissolving in DMSO [2] | solubility [2] | Solubility (μM) [2] | Solubility into a buffer [2] | SHG signal (CHO cells [1]) | TPF signal (CHO cells [1]) | Toxicity (CHO cells [3]) | TPF signal [4] | SHG signal [4] | Fluorescent (TPF) signal (nerve cell) | SHG signal (nerve cell) |
| --- | --- | --- | --- | --- | --- | --- | --- | --- | --- | --- | --- |
| CCCCN(CCCC)c1ccc(/N=N/c2ccc(S(=O)(=O)O)cc2)cc1 [#1] | easily dissolved | ~100 µM (≈ 39 µg/mL) |  |  | Good | None | High |  |  |  |  |
| CCCCCCN(CCCCCC)c1ccc(/N=N/c2ccc(S(=O)(=O)O)cc2)cc1 [#2] | easily dissolved | ~100 µM (≈ 44.6 µg/mL) |  |  | Good | None | High |  |  |  |  |
| CCCCCCN(CCCCCC)c1ccc(/N=N/c2ccc(C=O)cc2)cc1 [#4] | no dissolving |  | Insoluble |  | not obtained at all | not obtained at all |  |  |  |  |  |
| CCCCCCN(CCCCCC)c1ccc(/N=N/c2ccc(C=C(C#N)C#N)cc2)cc1 [#5] | no dissolving |  | Insoluble |  | not obtained at all | not obtained at all |  |  |  |  |  |
| CCCCCCN(CCCCCC)c1ccc(/N=N/c2cc[n+](CCC[N+](CC)(CC)CC)cc2)cc1 [Ap3] |  | 100 µM |  | no problem | observed and Good | not observed and None | no problem; also recorded: Little | not observed | can be observed |  |  |
| CCN(CC)c1ccc(/C=C/C=C/C=C/c2cc[n+](CCC[N+](CC)(CC)CC)cc2)cc1 [FM4-64, reference compound] |  |  |  |  |  |  |  | observed | observed | detected | very strong |

Further lines, with some results ahead:

| Dissolving in DMSO [2] | solubility [2] | Solubility (μM) [2] | Solubility into a buffer [2] | SMILES | SHG signal (CHO cells [1]) | TPF signal (CHO cells [1]) | Toxicity (CHO cells [3]) | TPF signal [4] | SHG signal [4] | Fluorescent (TPF) signal (nerve cell) | SHG signal (nerve cell) |
| --- | --- | --- | --- | --- | --- | --- | --- | --- | --- | --- | --- |
| easily dissolved | ~100 µM (≈ 50.2 µg/mL) |  |  | CCCCCCCCN(CCCCCCCC)c1ccc(/N=N/c2ccc(S(=O)(=O)O)cc2)cc1 [#3] | Good | None | Some |  |  |  |  |
| poor solubility | < 100 µM |  | no problem | CCCCCCN(CCCCCC)c1ccc(/N=N/c2cc[n+](CCCS(=O)(=O)[O-])cc2)cc1 [#6, (E)-3-(4-((4-(dihexylamino)phenyl)diazenyl)pyridin-1-ium-1-yl)propane-1-sulfonate] | observed and Fine | not observed and None | no problem; also recorded: Little |  |  |  |  |
| poor solubility | < 100 µM |  | no problem | CCCCCCCCN(CCCCCCCC)c1ccc(/N=N/c2cc[n+](CCCS(=O)(=O)[O-])cc2)cc1 [#7, (E)-3-(4-((4-(dioctylamino)phenyl)diazenyl)pyridin-1-ium-1-yl)propane-1-sulfonate] | observed and Fine | not observed and None | no problem; also recorded: Little |  |  |  |  |
